Like-named read-outs stand apart in the source and are kept apart here.

Broadly, the IC50 is the midpoint of a concentration-inhibition curve.

Series [1] deals with HDAC5 (Homo sapiens (Human), UniProt Q9UQL6). The series is described as follows: Enzymatic screening, HDAC5 inhibition. It is filed as biochemical.
The conditions of series [2]: 4 h.
Experimental: (§2) In order to evaluate the stability to circulating enzymes, test compounds were incubated in human and rat plasma at 37° C. in a thermostated oscillating bath. Each test compound was incubated at μM concentration (50 μM when the samples were analysed by UV/HPLC, 1 or 2 μM when the samples were analysed by LC-MS/MS) for 0, 15, 30 minutes and 1, 2 and 4 hours. The reaction was stopped placing samples on ice bath and adding acidified acetonitrile. After centrifugation (10 minutes at 14000 rpm) an aliquot of the supernatant was diluted with water, filtered with 0.45 μm regenerated cellulose syringe filters and injected in HPLC-UV or in LC-MS/MS. The percentage of the remaining amount at the various incubation times with respect to the initial amount were calculated. The half-life in plasma was also calculated.
In series [3] the target is recombinant human HDAC1 (Homo sapiens (Human), UniProt Q13547). The series is described as follows: Enzymatic screening, HDAC1 inhibition (fluorogenic FdL_G substrate). It is filed as biochemical. In a few lines: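 Recombinant human HDAC1 inhibition was measured fluorometrically using the FLUOR DE LYS-Green (FdL_G) substrate. Compounds at 8 doses (1% DMSO final) in Tris-HCl pH 8 buffer with NaCl, Tween-20 and glycerol were preincubated in triplicate with enzyme and 1 mg/mL BSA, then given substrate. Developer I plus 2 μM TSA was added, and fluorescence read after 25 minutes in the dark.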

For series [4], the target named is HDAC10 (Homo sapiens (Human), UniProt Q969S8). The series is described as follows: Enzymatic screening, HDAC10 inhibition. It is filed as biochemical. Summed up:
(§1)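 Enzyme was preincubated with compound (8 doses, triplicate, 1% DMSO) in 25 mM Tris-HCl pH 8, 130 mM NaCl, 0.05% Tween-20, 10% glycerol, with BSA at 2 mg/mL (HDAC4, HDAC9) or 1 mg/mL (HDAC8, HDAC10). A FLUOR DE LYS, FLUOR DE LYS-Green or Boc-Lys(Tfa)-AMC substrate was then added, and fluorescence was read after developer plus 2 μM TSA.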

For series [5] the following is noted: 4 h. The source holds these as a separate data set.
The target of series [6] is HDAC3 (Homo sapiens (Human), UniProt O15379). The series is described as follows: Enzymatic screening, HDAC3 inhibition. The series is classed as biochemical.
Sequence of HDAC3 (O15379 whole entry): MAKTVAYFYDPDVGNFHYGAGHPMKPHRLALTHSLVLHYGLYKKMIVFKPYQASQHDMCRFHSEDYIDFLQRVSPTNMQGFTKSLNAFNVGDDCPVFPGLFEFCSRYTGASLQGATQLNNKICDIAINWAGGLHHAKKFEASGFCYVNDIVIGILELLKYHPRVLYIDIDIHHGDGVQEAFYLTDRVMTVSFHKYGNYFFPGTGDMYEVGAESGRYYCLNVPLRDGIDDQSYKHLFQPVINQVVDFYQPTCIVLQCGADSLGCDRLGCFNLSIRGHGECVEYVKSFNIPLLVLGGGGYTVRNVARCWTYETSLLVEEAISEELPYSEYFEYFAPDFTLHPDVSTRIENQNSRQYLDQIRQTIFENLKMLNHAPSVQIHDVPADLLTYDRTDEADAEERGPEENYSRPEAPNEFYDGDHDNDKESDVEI
Sequence of HDAC3 (Q9Y618 395-489 partner): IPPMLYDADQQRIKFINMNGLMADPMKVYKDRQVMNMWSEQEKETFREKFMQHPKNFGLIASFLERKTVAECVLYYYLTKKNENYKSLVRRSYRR
Series [7] addresses HDAC4 (Homo sapiens (Human), UniProt P56524). The series is described as follows: Enzymatic screening, HDAC4 inhibition. The series is classed as biochemical. Summed up: as §1
The conditions of series [8]: 90 min, pH 7.4.
Experimental: (§3) Test compounds were incubated in rat and human liver S9 fraction at 37° C. up to 90 minutes in order to evaluate their stability to Phase I metabolism by hepatic enzymes. Each test compound was incubated at μM concentration (50 μM when the samples were analysed by UV/HPLC, 1 or 2 μM when the samples were analysed by LC-MS/MS) with S9 fraction (protein content 2 mg/m L) in 100 mM phosphate buffer (pH 7.4), 3.3 mM MgCl2 and 1.3 mM NADPH for 0, 10, 30, 60 and 90 minutes at 37° C. in a thermostated oscillating bath. The reaction was stopped placing samples on ice bath and adding acidified acetonitrile. After centrifugation (10 minutes at 14000 rpm) an aliquot of the supernatant was diluted with water, filtered with 0.45 μm regenerated cellulose syringe filters and injected in HPLC-UV or in LC-MS/MS. The percentage of the remaining amount at the various incubation times with respect to the initial amount were calculated.
Series [9] concerns the target HDAC8 (Homo sapiens (Human), UniProt Q9BY41). The series is described as follows: Enzymatic screening, HDAC8 inhibition. It is filed as biochemical. Summed up: as §1
Series [10] has as its target HDAC11 (Homo sapiens (Human), UniProt Q96DB2). The series is described as follows: Enzymatic screening, HDAC11 inhibition. It is filed as biochemical.
The target in series [11] is HDAC2 (Homo sapiens (Human), UniProt Q92769). The series is described as follows: Enzymatic screening, HDAC2 inhibition. It is filed as biochemical.
Series [12] deals with recombinant human HDAC6 (Homo sapiens (Human), UniProt Q9UBN7). The series is described as follows: Enzymatic screening, HDAC6 inhibition (fluorogenic FdL_G substrate). The series is classed as biochemical. In a few lines:
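Enzyme was preincubated with compound (8 doses, triplicate, 1% DMSO) in 25 mM Tris-HCl pH 8, 130 mM NaCl, 0.05% Tween-20, 10% glycerol, with BSA. A FLUOR DE LYS-Green substrate was then added, and fluorescence was read after developer plus 2 μM TSA.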

Series [13] addresses HDAC7 (Homo sapiens (Human), UniProt Q8WUI4). The series is described as follows: Enzymatic screening, HDAC7 inhibition. The series is classed as biochemical.
Series [14] has as its target HDAC9 (Homo sapiens (Human), UniProt Q9UKV0). The series is described as follows: Enzymatic screening, HDAC9 inhibition. It is filed as biochemical. Summed up:
as §1

Series [15] relates to α-tubulin acetylation in 697 cell line. The series is described as follows: In vitro α-tubulin acetylation in 697 cell line (ELISA). It is filed as cell-based. The note with it: 16 hours, read-out: fold increase @ 1 uM TubAc (ratio of acetylated tubulin and total tubulin towards control). In a few lines:
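B 697 cells in RPMI 10% FCS were treated for 16 h at 37 °C with compound at 1000, 333, 111 or 37 nM. Lysate (0.3 μg protein) was coated and probed by ELISA for acetylated and total α-tubulin, read at 450 nm. The acetylated/total ratio is given as fold over untreated control.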
On the technique in general: In an ELISA, binding on a coated surface is turned into a signal by an enzyme label.

For series [16] the following is noted: 90 min, pH 7.4. The source holds these as a separate data set.
The nature of series [17]: Stability to Phase I metabolism in rat S9 liver fraction. To be noted: after 90 minutes, 37° C.
Series [18] is described as follows: Stability in human plasma. To be noted: after 4 hours, 37° C.
The nature of series [19]: Stability to Phase I metabolism in human S9 liver fraction. The note with it: after 90 minutes, 37° C.
Experimental: as §3
Series [20] is described as follows: Stability in rat plasma. The note with it: after 4 hours, 37° C.
Experimental: as §2

Sequence of HDAC9 (Q9UKV0 whole entry): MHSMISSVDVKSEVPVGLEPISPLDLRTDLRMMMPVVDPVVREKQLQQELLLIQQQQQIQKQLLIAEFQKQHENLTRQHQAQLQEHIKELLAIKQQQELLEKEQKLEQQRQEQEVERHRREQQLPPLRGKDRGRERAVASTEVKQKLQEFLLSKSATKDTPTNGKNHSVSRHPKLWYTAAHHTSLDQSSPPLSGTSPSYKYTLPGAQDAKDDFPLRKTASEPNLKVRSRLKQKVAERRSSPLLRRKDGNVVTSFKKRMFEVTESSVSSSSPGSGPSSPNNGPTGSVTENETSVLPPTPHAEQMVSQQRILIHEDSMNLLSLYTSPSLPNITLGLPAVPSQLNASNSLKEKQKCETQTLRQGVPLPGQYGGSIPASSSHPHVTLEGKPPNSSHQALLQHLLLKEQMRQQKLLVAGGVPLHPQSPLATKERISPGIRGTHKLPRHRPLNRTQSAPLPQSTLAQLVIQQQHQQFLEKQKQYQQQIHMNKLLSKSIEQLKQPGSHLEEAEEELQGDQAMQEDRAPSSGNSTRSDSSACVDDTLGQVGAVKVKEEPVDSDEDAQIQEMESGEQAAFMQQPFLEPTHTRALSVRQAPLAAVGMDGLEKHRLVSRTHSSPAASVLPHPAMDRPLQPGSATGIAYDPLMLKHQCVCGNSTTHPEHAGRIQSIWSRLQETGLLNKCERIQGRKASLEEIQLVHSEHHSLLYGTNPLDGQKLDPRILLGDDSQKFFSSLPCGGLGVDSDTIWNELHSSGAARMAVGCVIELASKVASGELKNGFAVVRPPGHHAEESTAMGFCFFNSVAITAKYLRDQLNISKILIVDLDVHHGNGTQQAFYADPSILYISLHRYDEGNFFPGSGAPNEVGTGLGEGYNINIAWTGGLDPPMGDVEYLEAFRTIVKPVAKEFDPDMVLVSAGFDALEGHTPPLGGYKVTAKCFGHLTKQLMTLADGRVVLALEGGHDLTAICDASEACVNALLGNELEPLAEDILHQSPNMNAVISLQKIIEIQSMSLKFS
Sequence of HDAC5 (Q9UQL6 whole entry): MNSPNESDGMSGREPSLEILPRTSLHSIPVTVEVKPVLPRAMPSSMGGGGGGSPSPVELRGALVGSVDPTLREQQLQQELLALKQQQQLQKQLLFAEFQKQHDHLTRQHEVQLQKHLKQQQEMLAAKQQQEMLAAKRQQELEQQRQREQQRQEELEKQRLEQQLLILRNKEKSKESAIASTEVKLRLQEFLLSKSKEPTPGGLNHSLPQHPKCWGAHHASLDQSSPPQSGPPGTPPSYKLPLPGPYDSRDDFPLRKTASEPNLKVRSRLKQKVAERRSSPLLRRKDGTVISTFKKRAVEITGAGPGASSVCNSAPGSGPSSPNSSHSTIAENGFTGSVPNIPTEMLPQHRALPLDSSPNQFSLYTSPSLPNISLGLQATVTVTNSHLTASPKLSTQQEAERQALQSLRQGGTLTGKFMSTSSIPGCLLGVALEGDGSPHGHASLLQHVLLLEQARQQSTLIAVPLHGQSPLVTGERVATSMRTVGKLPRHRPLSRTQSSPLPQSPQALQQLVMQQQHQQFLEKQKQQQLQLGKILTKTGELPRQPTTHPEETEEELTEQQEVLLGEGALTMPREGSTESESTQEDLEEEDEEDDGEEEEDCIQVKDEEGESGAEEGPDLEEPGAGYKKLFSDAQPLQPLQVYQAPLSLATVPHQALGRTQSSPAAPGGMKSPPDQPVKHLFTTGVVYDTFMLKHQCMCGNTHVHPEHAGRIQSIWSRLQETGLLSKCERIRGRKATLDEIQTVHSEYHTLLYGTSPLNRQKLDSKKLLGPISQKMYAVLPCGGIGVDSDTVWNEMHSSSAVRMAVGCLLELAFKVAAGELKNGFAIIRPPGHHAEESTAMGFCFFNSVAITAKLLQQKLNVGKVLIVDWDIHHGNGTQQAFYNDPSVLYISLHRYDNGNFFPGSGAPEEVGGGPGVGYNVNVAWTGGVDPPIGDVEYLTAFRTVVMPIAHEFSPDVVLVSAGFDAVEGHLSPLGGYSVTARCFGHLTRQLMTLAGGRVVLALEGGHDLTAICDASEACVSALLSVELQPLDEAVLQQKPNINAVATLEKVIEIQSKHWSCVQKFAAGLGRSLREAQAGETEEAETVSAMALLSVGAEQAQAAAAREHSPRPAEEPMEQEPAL
Sequence of HDAC4 (P56524 whole entry): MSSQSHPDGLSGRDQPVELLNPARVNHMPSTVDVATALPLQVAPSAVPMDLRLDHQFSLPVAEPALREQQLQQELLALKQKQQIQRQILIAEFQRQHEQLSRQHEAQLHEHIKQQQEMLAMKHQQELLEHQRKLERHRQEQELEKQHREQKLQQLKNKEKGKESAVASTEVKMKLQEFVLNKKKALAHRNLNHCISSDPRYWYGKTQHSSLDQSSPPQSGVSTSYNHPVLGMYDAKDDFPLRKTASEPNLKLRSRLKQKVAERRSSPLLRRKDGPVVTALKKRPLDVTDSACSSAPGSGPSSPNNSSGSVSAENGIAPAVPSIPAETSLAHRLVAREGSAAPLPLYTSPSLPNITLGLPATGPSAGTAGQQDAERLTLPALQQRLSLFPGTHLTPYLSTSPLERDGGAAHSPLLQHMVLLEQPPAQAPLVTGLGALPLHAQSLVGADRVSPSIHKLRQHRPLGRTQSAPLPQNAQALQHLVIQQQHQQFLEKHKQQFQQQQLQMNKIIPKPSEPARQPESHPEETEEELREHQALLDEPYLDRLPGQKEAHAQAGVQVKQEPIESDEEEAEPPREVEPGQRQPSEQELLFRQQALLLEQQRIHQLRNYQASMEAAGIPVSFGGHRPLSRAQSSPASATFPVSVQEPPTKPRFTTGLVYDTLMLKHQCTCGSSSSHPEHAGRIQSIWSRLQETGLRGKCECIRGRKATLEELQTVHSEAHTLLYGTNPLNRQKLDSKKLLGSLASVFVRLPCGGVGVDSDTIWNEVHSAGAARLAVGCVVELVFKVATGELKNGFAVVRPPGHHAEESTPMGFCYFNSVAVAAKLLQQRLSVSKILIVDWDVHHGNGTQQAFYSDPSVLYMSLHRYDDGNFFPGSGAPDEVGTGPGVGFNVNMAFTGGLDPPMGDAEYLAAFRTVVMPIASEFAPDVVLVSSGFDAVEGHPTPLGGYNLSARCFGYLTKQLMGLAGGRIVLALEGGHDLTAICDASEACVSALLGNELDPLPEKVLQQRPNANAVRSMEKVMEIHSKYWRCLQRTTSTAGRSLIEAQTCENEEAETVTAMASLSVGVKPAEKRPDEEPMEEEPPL
Sequence of recombinant human HDAC6 (Q9UBN7 whole entry): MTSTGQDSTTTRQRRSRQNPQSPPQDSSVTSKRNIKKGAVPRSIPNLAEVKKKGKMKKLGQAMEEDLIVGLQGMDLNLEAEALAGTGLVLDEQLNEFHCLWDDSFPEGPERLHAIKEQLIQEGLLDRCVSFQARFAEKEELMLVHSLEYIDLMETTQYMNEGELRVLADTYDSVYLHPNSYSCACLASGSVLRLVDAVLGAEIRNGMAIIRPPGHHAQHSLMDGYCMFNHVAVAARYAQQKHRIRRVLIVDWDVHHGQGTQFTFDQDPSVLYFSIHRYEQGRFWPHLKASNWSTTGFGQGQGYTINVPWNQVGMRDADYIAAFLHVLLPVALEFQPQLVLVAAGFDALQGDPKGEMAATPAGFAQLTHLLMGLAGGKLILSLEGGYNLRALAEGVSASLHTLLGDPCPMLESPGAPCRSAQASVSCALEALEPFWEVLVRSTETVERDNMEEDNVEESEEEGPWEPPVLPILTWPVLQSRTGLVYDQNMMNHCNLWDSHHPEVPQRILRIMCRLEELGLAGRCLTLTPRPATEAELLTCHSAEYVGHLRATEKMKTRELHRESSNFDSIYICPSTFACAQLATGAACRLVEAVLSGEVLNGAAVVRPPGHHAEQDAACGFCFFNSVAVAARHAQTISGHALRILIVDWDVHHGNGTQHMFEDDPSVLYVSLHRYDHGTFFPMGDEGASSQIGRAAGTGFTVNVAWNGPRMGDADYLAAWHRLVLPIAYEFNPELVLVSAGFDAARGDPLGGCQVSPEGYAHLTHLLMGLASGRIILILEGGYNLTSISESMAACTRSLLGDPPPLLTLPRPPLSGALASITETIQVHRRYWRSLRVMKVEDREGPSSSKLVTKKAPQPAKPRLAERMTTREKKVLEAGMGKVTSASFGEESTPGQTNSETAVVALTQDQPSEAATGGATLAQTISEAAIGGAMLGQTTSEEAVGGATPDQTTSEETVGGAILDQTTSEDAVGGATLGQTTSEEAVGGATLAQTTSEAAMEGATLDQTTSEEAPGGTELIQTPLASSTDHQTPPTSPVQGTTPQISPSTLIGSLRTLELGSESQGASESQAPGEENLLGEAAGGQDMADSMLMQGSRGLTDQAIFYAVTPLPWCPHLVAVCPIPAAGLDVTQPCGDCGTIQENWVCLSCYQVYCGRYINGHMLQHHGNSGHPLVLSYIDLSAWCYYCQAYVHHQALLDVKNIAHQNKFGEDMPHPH

For `O=C1Nc2ccc(-c3cn(Cc4ccc(-c5nnc(C(F)F)o5)cn4)nn3)cc2C12CCNCC2` [Compd. 19, 5-(1-((5-(5-(difluoromethyl)-1,3,4-oxadiazol-2-yl)pyridin-2-yl)methyl)-1H-1,2,3-triazol-4-yl)spiro[indoline-3,4′-piperidin]-2-one], the IC50 in series [1] was over 30 µM; in series [3] it was over 200 µM; in series [4] it was over 30 µM; in series [6], over 30 µM; in series [7], over 30 µM; in [9], 572 µM. Further, the IC50 was over 30 µM in series [10]; over 30 µM in series [11]; 0.011 µM in [12]; over 30 µM in [13]; over 30 µM in [14]. Moreover, the “residual percentage in RAT PLASMA” value in series [2] came out at 83%. For the same molecule, in series [5], the “residual percentage in HUMAN PLASMA” value was determined as 83%. The “residual percentage in HUMAN S9 FRACTION” value in [8] came out at 96%. Moreover, the fold induction at 1 µM in [15] was 4. In series [16], the “residual percentage in RAT S9 FRACTION” value is 94%.
As for `O=C1Nc2ccc(-c3cn(Cc4ccc(-c5nnc(C(F)F)o5)cc4)nn3)cc2C12CCNCC2` [compound 46, 5-(1-(4-(5-(difluoromethyl)-1,3,4-oxadiazol-2-yl)benzyl)-1H-1,2,3-triazol-4-yl)spiro[indoline-3,4′-piperidin]-2-one], the “residual percentage in RAT PLASMA” value in [2] is on record as 72%. In addition, the IC50 is over 200 µM in [3] and 0.02 µM in [12]. For the same molecule, in series [5], the “residual percentage in HUMAN PLASMA” value amounted to 74%. The “residual percentage in HUMAN S9 FRACTION” value in series [8] is 81%. In addition, the fold induction at 1 µM in series [15] worked out at 5. Moreover, the “residual percentage in RAT S9 FRACTION” value in [16] is given as 60%.
Regarding `FC(F)c1nnc(-c2ccc(Cn3cnc(-c4ccc(NC5=NCCN5)cc4)c3)nc2)o1` [compound 20, N-(4-(1-((5-(5-(difluoromethyl)-1,3,4-oxadiazol-2-yl)pyridin-2-yl)methyl)-1H-imidazol-4-yl)phenyl)-4,5-dihydro-1H-imidazol-2-amine], the IC50 in series [1] is over 30 µM; in [3] it was over 200 µM; in series [4], over 30 µM; in series [6] it was over 30 µM; in series [7], over 30 µM; in series [9], 578 µM. For the same molecule, the IC50 in [10] was over 30 µM; in series [11] it was over 30 µM; in [12], 0.011 µM; in series [13] it was over 30 µM; in series [14], over 30 µM. Besides, in series [17], the “residual percentage in RAT S9 FRACTION” value was found to be 93%. Further, the “residual percentage in HUMAN PLASMA” value in series [18] came to 97%. The “residual percentage in HUMAN S9 FRACTION” value in series [19] was determined as 99%. Also, the fold induction at 1 µM in series [15] was 11. The “residual percentage in RAT PLASMA” value in series [20] was found to be 82%.
With `Nc1nc2cc(-c3cn(Cc4ccc(-c5nnc(C(F)F)o5)cn4)nn3)ccc2s1` [Compd. 3, 5-(1-((5-(5-(difluoromethyl)-1,3,4-oxadiazol-2-yl)pyridin-2-yl)methyl)-1H-1,2,3-triazol-4-yl)benzo[d]thiazol-2-amine], the IC50 was over 30 µM in series [1]; over 200 µM in series [3]; over 30 µM in series [4]; over 30 µM in [6]; over 30 µM in series [7]; over 200 µM in series [9]. Further, the 50% inhibitory concentration (IC50) in series [10] is over 30 µM; in series [11], over 30 µM; in series [12], 0.01 µM; in series [13], over 30 µM; in series [14] it was 22.5 µM. The “residual percentage in RAT S9 FRACTION” value in [17] amounted to 90%. Further, in series [18], the “residual percentage in HUMAN PLASMA” value turned out to be 70%. Further, the “residual percentage in HUMAN S9 FRACTION” value in series [19] is 97%. Moreover, the fold induction at 1 µM in series [15] came out at 13. Also, in [20], the “residual percentage in RAT PLASMA” value was determined as 80%.
Turning to `Nc1ccc(-c2cn(Cc3ccc(-c4nnc(C(F)F)o4)cn3)nn2)cn1` [compound 5, 5-(1-((5-(5-(difluoromethyl)-1,3,4-oxadiazol-2-yl)pyridin-2-yl)methyl)-1H-1,2,3-triazol-4-yl)pyridin-2-amine], the concentration for half-maximal inhibition (IC50) is over 30 µM in series [1]; over 200 µM in series [3]; over 30 µM in series [4]; over 30 µM in series [6]; over 30 µM in [7]; over 200 µM in series [9]. Besides, the IC50 is over 30 µM in series [10]; over 30 µM in [11]; 0.012 µM in series [12]; over 30 µM in series [13]; over 30 µM in series [14]. In addition, the “residual percentage in RAT S9 FRACTION” value in [17] came out at 93%. For the same molecule, the “residual percentage in HUMAN PLASMA” value in [18] came out at 74%. In addition, in series [19], the “residual percentage in HUMAN S9 FRACTION” value amounted to 92%. The fold induction at 1 µM in series [15] was found to be 19. Further, the “residual percentage in RAT PLASMA” value in series [20] stood at 70%.
Turning to `O=C(Nc1cccc(-c2cn(Cc3ccc(-c4nnc(C(F)F)o4)c(F)c3)nn2)c1)N1CCOCC1` [compound 16, N-(3-(1-(4-(5-(difluoromethyl)-1,3,4-oxadiazol-2-yl)-3-fluorobenzyl)-1H-1,2,3-triazol-4-yl)phenyl)morpholine-4-carboxamide], the IC50 in series [1] is over 30 µM; in series [3], over 200 µM; in series [4], over 30 µM; in series [6], over 30 µM; in series [7], over 30 µM; in series [9], over 200 µM. In addition, the IC50 was over 30 µM in [10]; over 30 µM in series [11]; 0.029 µM in series [12]; over 30 µM in series [13]; over 30 µM in series [14]. For the same molecule, the “residual percentage in RAT S9 FRACTION” value in [17] is 88%. In addition, the “residual percentage in HUMAN PLASMA” value in series [18] was 75%. Further, the “residual percentage in HUMAN S9 FRACTION” value in series [19] is on record as 86%. Moreover, the fold induction at 1 µM in series [15] was determined as 19. Besides, in series [20], the “residual percentage in RAT PLASMA” value came out at 84%.
As to `Nc1ccc(-c2cn(Cc3ccc(-c4nnc(C(F)F)o4)c(F)c3F)nn2)cn1` [compound 21, 5-(1-(4-(5-(difluoromethyl)-1,3,4-oxadiazol-2-yl)-2,3-difluorobenzyl)-1H-1,2,3-triazol-4-yl)pyridin-2-amine], the IC50 is over 30 µM in [1]; over 200 µM in [3]; over 30 µM in series [4]; over 30 µM in [6]; over 30 µM in [7]; over 200 µM in series [9]. The IC50 in series [10] was over 30 µM; in series [11], over 30 µM; in series [12], 0.017 µM; in series [13], over 30 µM; in series [14], over 30 µM. The “residual percentage in RAT S9 FRACTION” value in series [17] was 90%. Moreover, the “residual percentage in HUMAN PLASMA” value in series [18] turned out to be 84%. The “residual percentage in HUMAN S9 FRACTION” value in series [19] is on record as 99%. The fold induction at 1 µM in [15] is 16. Also, the “residual percentage in RAT PLASMA” value in series [20] was found to be 75%.
As to `Nc1nc2cc(-c3cn(Cc4ccc(-c5nnc(C(F)F)o5)cc4)nn3)ccc2[nH]1` [Compd. 8, 5-(1-(4-(5-(difluoromethyl)-1,3,4-oxadiazol-2-yl)benzyl)-1H-1,2,3-triazol-4-yl)-1H-benzo[d]imidazol-2-amine], the IC50 in series [1] is over 30 µM; in [3] it was over 200 µM; in series [4], over 30 µM; in series [6], over 30 µM; in [7] it was over 30 µM; in series [9], over 200 µM. Further, the IC50 in series [10] was over 30 µM; in [11], over 30 µM; in [12], 0.014 µM; in series [13] it was over 30 µM; in series [14], over 30 µM. Further, in [17], the “residual percentage in RAT S9 FRACTION” value was determined as 94%. Further, the “residual percentage in HUMAN PLASMA” value in series [18] was 99%. Moreover, in series [19], the “residual percentage in HUMAN S9 FRACTION” value was 95%. In addition, the fold induction at 1 µM in series [15] amounted to 10. Also, the “residual percentage in RAT PLASMA” value in series [20] came to 76%.

Source of the values: patent publication US20230286970A1, “NOVEL OXADIAZOLE-BASED SELECTIVE HDAC6 INHIBITORS” (ITALFARMACO S.P.A., priority 2020, published 2023).
